Consider six molecules from patent US12404532B2, “Composition for producing glucosylated steviol glycoside including glucosyltransferase and method of producing glucosylated steviol glycoside using the same” (CJ CHEILJEDANG CORPORATION, priority 2019, dated 2025).

Data set [1] has as its system Lactobacillus mali crude enzyme solution including the enzyme including the amino acid sequence of SEQ ID NO: 1. In words: Glucose transfer to steviol glycoside by crude enzyme solution (HPLC). It counts as biochemical. To be noted: 6% substrate, 6% white sugar, 50 mM sodium acetate buffer pH 5.0, 40 °C, 24 hours. The protocol: 6% Rebaudioside A (purecircle) or 6% Stevioside (carbosynth), and 6% white sugar (CJ CheilJedang) were dissolved in a 50 mM sodium acetate buffer (pH 5.0), and then the Lactobacillus mali crude enzyme solution including the enzyme including the amino acid sequence of SEQ ID NO: 1 was added thereto, and allowed to react at 40° C. for 24 hours. Thereafter, whether glucosylated Rebaudioside A or glucosylated Stevioside was produced was confirmed by HPLC, and the results are shown in FIGS. 2 to 5. Meanwhile, HPLC analysis conditions are as follows:
FIGS. 2 and 4 show HPLC analysis results before the enzyme reaction, and FIGS. 3 and 5 show HPLC analysis results after the enzyme reaction.

Data set [2] relates to enzyme including the amino acid sequence of SEQ ID NO: 1. In words: Glucose transfer to steviol glycoside by purified recombinant enzyme (HPLC). It counts as biochemical, Lactobacillus mali. To be noted: 6% substrate, 6% white sugar, 50 mM sodium acetate buffer pH 5.0, 40 °C, 24 hours, purified enzyme of Example 5-1. As for the experimental part:
A polynucleotide encoding the amino acid sequence of SEQ ID NO: 1 was prepared by a polynucleotide synthesis method (Bioneer Corp.), and the obtained polynucleotide was inserted into a pBT7-N-His vector, which was then transformed into E. coli BL21(DE3). The transformed E. coli was smeared on a plate medium containing ampicillin to obtain a recombinant strain (microorganism).
The recombinant E. coli strain was seeded in 5 mL of an LB medium containing ampicillin, and seed culture was carried out at 37° C. until optical density at 600 nm reached 2.0. The seed culture broth was added to 500 mL of an LB medium containing ampicillin, and main culture was carried out. Thereafter, when optical density at 600 nm reached 0.4, 0.1 mM isopropyl β-D-thiogalactopyranoside (IPTG) was added to induce mass-expression of the enzyme including the amino acid sequence of SEQ ID NO: 1. During the process, an agitation speed was 180 rpm, and culture temperature was maintained at 37° C. After IPTG addition, the agitation speed was 120 rpm, and culture temperature was maintained at 16° C.
The culture broth was centrifuged at 10,000×g at 4° C. for 20 minutes to obtain a cell pellet. A 50 mM tris-HCl buffer solution was added to the pellet, and re-suspended as a cell solution. The cell solution was sonicated using a sonicator. […]

Data set [3] is classed as physicochemical. As for the experimental part: The solubility of steviol glycoside and glucosylated steviol glycoside was measured.
Specifically, the solubility of Rebaudioside A (RA), Stevioside (STV), glucosylated Rebaudioside A (RA-Glu) of Example 4, and glucosylated Stevioside (STV-Glu) of Example 4 was measured, respectively.
Each 6 g of Rebaudioside A, Stevioside, glucosylated Rebaudioside A, and glucosylated Stevioside was mixed with 10 mL, and then dissolved by sonication at 50° C. for 60 minutes. The resultant was incubated for 1 week in a water bath at 5° C., 15° C., 25° C., 35° C., 45° C., or 55° C. Thereafter, the resulting solution was centrifuged at 12,000 rpm for 10 minutes, and 1 mL of the supernatant was collected and dried in an oven at 105° C. to measure the solubility, which is shown in Table 4.

The nature of data set [4]: Panel evaluation of actual sweetness and quality of sweetness. To be noted: for Actual Sweetness / Evaluation of Quality of Sweetness: dissolved in water, provided to panels. The text has this: The known material (i.e., α-(1,4) glucosylated Rebaudioside A) and the α-(1,6) glucosylated Rebaudioside A of Example 4 were independently dissolved in water and provided to panels for evaluation of actual sweetness and quality of sweetness.

A short description of data set [5]: Sugar hydrolysis activity by reducing sugar determination method (DNS method). It counts as biochemical. To be noted: 200 mM sugar solution, 40 °C, 10 minutes. The protocol: To confirm the presence of the desired enzyme, sugar hydrolysis activity of each fraction was examined by a reducing sugar determination method (DNS method).
A 200 mM sugar solution and each fraction were mixed at a ratio of 1:1 in a 50 mM sodium acetate buffer, and allowed to react in a water bath at 40° C. for 10 minutes, followed by inactivation at 100° C. A DNS reagent was added thereto at a ratio of 1:3, and then mixed and allowed to react at 100° C. for 5 minutes, and then DNS reaction was immediately stopped on ice. Thereafter, optical density (OD) of the DNS reagent was measured at 575 nm, and the activity was confirmed from a constructed fructose standard curve. At this time, 1 unit is defined by the amount (mL) of an enzyme that produces 1 μmole of fructose per 1 minute.

“Also recorded” adds a separate entry of the source.

For the molecule `C=C1C[C@@]23CC[C@H]4[C@@](C)(CCC[C@@]4(C)C(=O)O[C@@H]4O[C@H](CO)[C@@H](O)[C@H](O)[C@H]4O)[C@@H]2CC[C@]1(O[C@@H]1O[C@H](CO)[C@@H](O)[C@H](O[C@@H]2O[C@H](CO)[C@@H](O)[C@H](O)[C@H]2O)[C@H]1O[C@@H]1O[C@H](CO)[C@@H](O)[C@H](O)[C@H]1O)C3` [RA, Rebaudioside A, reference compound], the “Conversion rate into glucosylated steviol glycoside” value in data set [1] is “about 90%”. In addition, the “Conversion rate into glucosylated Rebaudioside A” value in data set [2] is given as “about 90%”.
For `C=C1C[C@@]23CC[C@H]4[C@@](C)(CCC[C@@]4(C)C(=O)O[C@@H]4O[C@H](CO[C@H]5O[C@H](CO)[C@@H](O)[C@H](O)[C@H]5O)[C@@H](O)[C@H](O)[C@H]4O)[C@@H]2CC[C@]1(O[C@@H]1O[C@H](CO)[C@@H](O)[C@H](O[C@@H]2O[C@H](CO)[C@@H](O)[C@H](O)[C@H]2O)[C@H]1O[C@@H]1O[C@H](CO)[C@@H](O)[C@H](O)[C@H]1O)C3` [RA-Glu, glucosylated Rebaudioside A], in data set [3], the “Solubility (%)” value was ≥ 40 ↑ %; the “Solubility as compared with Stevioside and Rebaudioside A, respectively” value is reported as “remarkably increased solubility”. The “Actual Sweetness” value in data set [4] was found to be 26. Also, the “Evaluation of Quality of Sweetness” value in data set [4] (listed as α-(1,6) glucosylated Rebaudioside A) is “better quality of sweetness; also recorded: Gives sweet taste in the beginning, has”. In data set [4] (summary of Table 5), the “Sweetness as compared with the α-(1,4) glucosylated Rebaudioside A” value was “high sweetness”.
For `C=C1C[C@@]23CC[C@H]4[C@@](C)(CCC[C@@]4(C)C(=O)O[C@@H]4O[C@H](CO)[C@@H](O)[C@H](O)[C@H]4O)[C@@H]2CC[C@]1(O[C@@H]1O[C@H](CO)[C@@H](O)[C@H](O)[C@H]1O[C@@H]1O[C@H](CO)[C@@H](O)[C@H](O)[C@H]1O)C3` [STV, Stevioside, reference compound], the “Conversion rate into glucosylated steviol glycoside” value in data set [1] is recorded as “about 90%”.
With `C=C1C[C@@]23CC[C@H]4[C@@](C)(CCC[C@@]4(C)C(=O)O[C@@H]4O[C@H](CO[C@H]5O[C@H](CO)[C@@H](O)[C@H](O)[C@H]5O)[C@@H](O)[C@H](O)[C@H]4O)[C@@H]2CC[C@]1(O[C@@H]1O[C@H](CO)[C@@H](O)[C@H](O)[C@H]1O[C@@H]1O[C@H](CO)[C@@H](O)[C@H](O)[C@H]1O)C3` [STV-Glu, glucosylated Stevioside], in data set [3], the “Solubility (%)” value is reported as ≥ 40 ↑ %; the “Solubility as compared with Stevioside and Rebaudioside A, respectively” value is reported as “remarkably increased solubility”.
For the molecule “α-(1,4) glucosylated Rebaudioside A [reference compound]”, in data set [4], the “Actual Sweetness” value was found to be 19 and the “Evaluation of Quality of Sweetness” value is on record as “Bitter taste is stronger than sweet taste,”.

B1: 75 kDa protein of Fraction No. 2: 75 kDa protein purified from Lactobacillus mali culture, identified by LC-MS as amino acid sequence SEQ ID NO: 1; glucosyltransferase (protein, listed as Lactobacillus mali)
chain: MDQMVLETQQWLNKTYGGVSGFGSVTEDGLTGWGTVYGLTRALQHELGITGLVNNFGPTSKQKFNNIAKTIVVGYTGNIAYIIQGGFWCKGITPGEFDGKFSADTASAVTTMKTKAGLADTSSSVDGNFMAALLNMSSFDLLTGGDSKVREMQQQLNHDYLAYTGILPCDGIYQRDTNSALIYALQAEEKISTSVATGAYGATTKKDTPTVKEGTTNNFVRILQWGLYVNNKAYTGAFDGVYDSAVVAAVKEFEETMALDSTDGTSAGVDIFMSLLTSAGNPDRSAIACDTSYQLNATRVATLKNAGYSIVGRYLTGTVGSGTSERAKNLTTDEITAITTGGLKIFPIYQDGASDKEAYFTAAQGKTDGTKAVYAAQDLGFKEGVVIYFAVDADIQAGDIAGSAKVYFEALYDIVTSYGYEVGIYGTRNVSATIISAGLATKAFISDMSTGYSGNLGYSIPDEWAFDQFSEISIGDFAIDKDATTSARETATGSFGVGGESGYGNAEDLAKINTIIDALSQKKNFSYLSGLKIEKTSKEYEIPGFAVDFYVQVKFEASVSEPGDNVGVVYNVSNGKFESDFTDTIAGVVALSDEINKEDINSALTELSSLINNGQIWVEPVTKGSDAGIALHIKSTFDHTLDSGETIELEYEIIIDEIFHKIEVVPTGVPNTTANDYNSLFPNGIKEFVGFSIVAGLATGGIYYVVTAVGATAAVVTTSILALIALLKNNDTGV
As to B1, the Sugar hydrolysis activity entry in data set [5] was “had sugar hydrolysis activity”.
